Laboratory results from publication PMC6120666 (The EMBO Journal, 2018).

How the values were obtained:
[1] = system: RIPK2 ubiquitination in U2OS/NOD2 and THP-1 cells; assay: Purification of Ub-conjugates (TUBE pulldown), RIPK2 ubiquitination; assay type: cell-based, human; conditions: U2OS/NOD2 or THP-1 cells, L18-MDP 200 ng/ml, 1 h
Description: For co‐immunoprecipitation of HA‐XIAP with RIPK2, transfected and treated cells were lysed in TBS buffer containing 0.5% NP‐40, cOmplete and PhosSTOP inhibitors (Roche) and the lysate was cleared by centrifugation. The lysates were incubated with anti‐HA‐agarose overnight, washed 3× with lysis buffer, and analyzed by immunoblotting. For GST pulldown experiments, U2OS/NOD2 cells were lysed in TBS lysis buffer containing 0.5% NP‐40, cOmplete and PhosSTOP inhibitors (Roche). Cleared lysates were pretreated with kinase inhibitors or DMSO and incubated with GST‐XIAP‐BIR2 bound to Glutathione Sepharose at 4°C overnight. Bound material was washed 3× with lysis buffer or PBS, eluted with 15 mM Glutathione in PBS, and analyzed by immunoblotting. […] The bound material was eluted and analyzed as described above. […]
PBS, eluted with 15 mM Glutathione in PBS and analyzed by immunoblotting. […]

[2] = biological target: T1, XIAP BIR2 - RIPK2 interaction (Homo sapiens, UniProt O43353); assay: GST-BIR2-XIAP pulldown of RIPK2; assay type: binding; conditions: for pulldown of RIPK2 by GST-BIR2-XIAP from cell lysates: U2OS/NOD2 lysates, inhibitors at 100-fold IC50 of RIPK2 kinase activity; for GST-BIR2-XIAP binding to recombinant RIPK2 kinase domain: recombinant human RIPK2 KD (dephosphorylated), same inhibitor concentrations
T1 construct: U2OS/NOD2 cells were lysed in TBS lysis buffer; endogenous in cells; host or cells: U2OS/NOD2 cell lysate (RIPK2); E. coli BL21 (GST-BIR2-XIAP)
Description: For co‐immunoprecipitation of HA‐XIAP with RIPK2, transfected and treated cells were lysed in TBS buffer containing 0.5% NP‐40, cOmplete and PhosSTOP inhibitors (Roche) and the lysate was cleared by centrifugation. The lysates were incubated with anti‐HA‐agarose overnight, washed 3× with lysis buffer, and analyzed by immunoblotting. For GST pulldown experiments, U2OS/NOD2 cells were lysed in TBS lysis buffer containing 0.5% NP‐40, cOmplete and PhosSTOP inhibitors (Roche). Cleared lysates were pretreated with kinase inhibitors or DMSO and incubated with GST‐XIAP‐BIR2 bound to Glutathione Sepharose at 4°C overnight. Bound material was washed 3× with lysis buffer or PBS, eluted with 15 mM Glutathione in PBS, and analyzed by immunoblotting. […] The bound material was eluted and analyzed as described above.
For coimmunoprecipitation of HA-XIAP with RIPK2, transfected and treated cells were lysed in TBS buffer containing 0.5% NP-40, cOmplete and PhosSTOP inhibitors (Roche) and the lysate was cleared by centrifugation. The lysates were incubated with anti-HA-agarose overnight, washed 3x with lysis buffer and analyzed by immunoblotting. For GST pull-down experiments, U2OS/NOD2 were lysed in TBS lysis buffer containing 0.5% NP-40, cOmplete and PhosSTOP inhibitors (Roche).
Cleared lysates were pretreated with kinase inhibitors or DMSO and incubated with GST-XIAP-BIR2 bound to Glutathione Sepharose at 4 °C overnight. Bound material was washed 3x with lysis buffer or PBS, eluted with 15 mM Glutathione in PBS and analyzed by immunoblotting. In pull-down […]
inhibitors or DMSO control in PBS were added together with RIPK2 kinase domain to GST-XIAP-BIR2 bound to Glutathione Sepharose. The bound material was eluted and analyzed as described above. […]

NOD2/HEKBlue cells = assay: hNOD2-HEKBlue L18-MDP-induced NF-κB reporter assay; assay type: cell-based, human; conditions: for IC50: Homo sapiens, HEK-Blue, L18-MDP-induced NF-κB reporter, average ± SD of at least three titrations
Description: For HEKBlue assay, cells were seeded into clear 96‐well plates at 7.5 × 10^3 cells/well and allowed to attach for 48 h. On the day of the experiment, media was changed to 100 μl of HEKBlue detection media (InvivoGen). Inhibitors were diluted and added in 0.5 μl DMSO 15 min prior to the addition of 1 ng/ml L18‐MDP (InvivoGen). After 8–9 h, absorbance at 620 nm was measured using Victor3V plate reader (Perkin Elmer, Waltham, MA). Values of media‐only wells were subtracted and %inhibition for each compound concentration relative to the DMSO/L18‐MDP‐treated controls was calculated. Inhibition values ± SD were fitted by non‐linear regression using Prism software (GraphPad Software, La Jolla, CA) to calculate IC50 values. For THP1Blue assay, 1 × 10^5 cells were seeded in 200 μl of RPMI media in 96‐well plates and treated with inhibitors in 0.5 μl DMSO for 15 min prior to the addition of 10 μg/ml MDP, 10 ng/ml Pam3CSK4, 10 ng/ml E. coli LPS, or 1 × 10^7 cells/ml heat‐killed L. monocytogenes (InvivoGen) for 24 h. After induction, 20 μl of media was mixed with 180 μl of QUANTI‐Blue reagent (InvivoGen) and incubated at 37°C for 3–4 h, followed by absorbance measurement at 620 nm. IC50 values were calculated as described for HEKBlue assay.
Cayman Chemical Company, Ann Arbor, MI), GSK583 (#HY-100339, MedChem Express, South Brunswick, NJ), WEHI-345 (MedKoo Biosciences, Morrisville, NC), Compound A (CpA, a kind gift from TetraLogic Pharmaceuticals, Malvern, PA). Generation of the CSLP compound series is described in Suebsuwong et al. 2018 (manuscript in preparation). hNOD2-HEKBlue and THP1Blue assays
For HEKBlue assay, cells were seeded into clear 96 well plates at 7.5x10^3 cells/well and allowed to attach for 48 h. On the day of the experiment, media was changed to 100 μl of HEKBlue detection media (InvivoGen). Inhibitors were diluted and added in 0.5 μl DMSO 15 min prior to the addition of 1 ng/ml L18-MDP (InvivoGen). After 8-9 h, absorbance at 620 nm was measured using Victor3V plate reader (Perkin Elmer, Waltham, MA). Values of media-only wells were subtracted and %inhibition for each compound concentration relative to the DMSO/L18-MDP-treated controls were calculated.
Inhibition values + StDev were fitted by non-linear regression using Prism software (GraphPad Software, La Jolla, CA) to calculate IC50 values. For THP1Blue assay, 1x10^5 cells were seeded in 200 μl of RPMI media in 96 well plates and treated with inhibitors in 0.5 μl DMSO 15 min prior to the addition of 10 µg/ml MDP, 10 ng/ml Pam3CSK4, 10 ng/ml E. coli LPS or 1x10^7 cells/ml heat-killed L. monocytogenes (InvivoGen) for 24 h. After induction, 20 μl of media was mixed with 180 μl of QUANTI-Blue reagent (InvivoGen) and incubated at 37 °C for 3-4 h, followed by absorbance measurement at 620 nm. IC50 values were calculated as described for HEKBlue assay. […]

NanoLuc-RIPK2 = biological target: T2, NanoLuc-RIPK2 (Homo sapiens, UniProt O43353); assay: nanoBRET cellular RIPK2 target engagement assay in HEKBlue cells; conditions: average ± SD of at least three titrations, read-out: IC50, Cellular activity, nanoBRET RIPK2 binding
T2 construct: host or cells: hNOD2-HEKBlue cells
T2 sequence (O43353 whole entry): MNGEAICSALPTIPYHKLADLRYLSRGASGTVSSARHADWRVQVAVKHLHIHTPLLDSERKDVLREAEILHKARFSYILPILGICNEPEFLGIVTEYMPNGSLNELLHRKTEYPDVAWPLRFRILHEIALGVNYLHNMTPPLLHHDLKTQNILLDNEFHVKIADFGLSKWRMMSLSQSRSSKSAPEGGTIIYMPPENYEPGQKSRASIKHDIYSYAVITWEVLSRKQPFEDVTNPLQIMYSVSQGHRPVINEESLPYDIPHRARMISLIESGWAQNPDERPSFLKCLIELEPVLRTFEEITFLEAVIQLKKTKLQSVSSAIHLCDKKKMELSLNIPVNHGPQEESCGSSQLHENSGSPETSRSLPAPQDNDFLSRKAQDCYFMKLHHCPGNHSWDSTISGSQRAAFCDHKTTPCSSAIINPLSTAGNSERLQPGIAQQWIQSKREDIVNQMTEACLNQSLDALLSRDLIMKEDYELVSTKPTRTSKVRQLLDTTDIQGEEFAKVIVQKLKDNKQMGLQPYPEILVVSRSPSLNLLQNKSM

`CCCS(=O)(=O)Nc1cc(-c2cc(-c3ccc(N4CCNCC4)cc3)cnc2N)cc(F)c1OC` [CSLP37] was tested, and the “RIPK2 ubiquitination after L18-MDP” value [1] was “inhibited RIPK2 ubiquitination”, the “pulldown of RIPK2 by GST-BIR2-XIAP from cell lysates” value (shortened to “pulldown of RIPK2 by GST-BIR2-XIAP”) [2] was “efficiently antagonized” and the “GST-BIR2-XIAP binding to recombinant RIPK2 kinase domain” value [2] was “still antagonized”. The IC50 (NOD2/HEKBlue cells) was 26.3 ± 3.7 nM and the IC50 (NanoLuc-RIPK2) was 36.3 ± 20.2 nM.

For `CCCS(=O)(=O)Nc1cc(-c2cc(-c3ccc(N4CCNCC4)cc3)cnc2N)cc(OC)c1OC` [CSLP43], the “RIPK2 ubiquitination after L18-MDP” value [1] was “inhibited RIPK2 ubiquitination”, the “pulldown of RIPK2 by GST-BIR2-XIAP” value [2] was “efficiently antagonized” and the “GST-BIR2-XIAP binding to recombinant RIPK2 kinase domain” value [2] was “still antagonized”. The IC50 (NOD2/HEKBlue cells) was 1.3 ± 0.4 nM and the IC50 (NanoLuc-RIPK2) was 10.1 ± 3.8 nM.

`CCCS(=O)(=O)Nc1cc(-c2cc(-c3ccc(N4CCNCC4)cc3)cnc2N)ccc1O` [CSLP48] was tested, and the “RIPK2 ubiquitination after L18-MDP” value [1] was “little or no effect”, the “pulldown of RIPK2 by GST-BIR2-XIAP” value [2] was “little effect” and the IC50 (NOD2/HEKBlue cells) was over 5000 nM. For the same compound, the IC50 (NanoLuc-RIPK2) was 1230 nM.

For `COc1cc(-c2cc(-c3ccc(N4CCNCC4)cc3)cnc2N)cc(F)c1OC` [CSLP55], the “RIPK2 ubiquitination after L18-MDP” value [1] was “little or no effect”, the “pulldown of RIPK2 by GST-BIR2-XIAP” value [2] was “little effect” and the IC50 (NOD2/HEKBlue cells) was 595 ± 69.6 nM. For the same compound, the IC50 (NanoLuc-RIPK2) was 195 ± 47.1 nM.

For `Cc1ccc(-c2nn(C(C)(C)CNC(=O)c3ccncc3)c3ncnc(N)c23)cc1` [WEHI‐345, reference compound], the IC50 (NOD2/HEKBlue cells) was 3370 nM, the “fold lower cellular potency than against RIPK2 kinase in vitro” value (NOD2/HEKBlue cells; Table 1, Fig 4A) was over 10 fold and the IC50 (NanoLuc-RIPK2) was 521 ± 172 nM.
